Counter-ions that a name gives are not always drawn. Like-named read-outs stand apart in the source and are kept apart here.
Legend:
[1] = test system: P. falciparum 3D7 parasites; experiment: P. falciparum growth inhibition assay, 1-cycle (72 h treatment), SYBR DNA staining (library screen at 2 μg/mL and dose-response); assay type: cell-based, Plasmodium falciparum; conditions: % growth; for activity at 2 µg/mL: Plasmodium falciparum
[2] = test system: P. falciparum 3D7 parasites; experiment: P. falciparum growth inhibition assay, 2-cycle (120 h treatment), delayed-death screen and dose-response; assay type: cell-based, Plasmodium falciparum; conditions: % growth; for activity at 2 µg/mL: Plasmodium falciparum
[3] = test system: T. gondii RH strain (RH-Tub-eYFP) tachyzoites; experiment: microbe, parasite or virus in culture; assay type: cell-based, Toxoplasma gondii; conditions: 72 h, % growth; for percent parasite growth at 2 µg/mL: Toxoplasma gondii
[4] = library screen at 2 μg/mL, 72 h, replicate 1
[5] = library screen at 2 μg/mL, 72 h, replicate 2
[6] = library screen at 2 μg/mL, 120 h, replicate 1
[7] = library screen at 2 μg/mL, 120 h, replicate 2
[8] = library screen at 2 μg/mL, replicate 1
[9] = library screen at 2 μg/mL, replicate 2
[10] = P. falciparum 3D7, 72 h, parasite screen at 2 μg/mL, replicate 1
[11] = P. falciparum 3D7, 72 h, parasite screen at 2 μg/mL, replicate 2
[12] = P. falciparum 3D7, 120 h, parasite screen at 2 μg/mL, replicate 1
[13] = P. falciparum 3D7, 120 h, parasite screen at 2 μg/mL, replicate 2
[14] = T. gondii, parasite screen at 2 μg/mL, replicate 1
[15] = T. gondii, parasite screen at 2 μg/mL, replicate 2
[16] = library screen at 2 μg/mL, replicate 1, read-out: Tg_72h_%Growth_Rep1
[17] = library screen at 2 μg/mL, replicate 2, read-out: Tg_72h_%Growth_Rep2

Compound: CCC/C=C/C=C/C1C[C@@H](O)[C@@H](O)C(=O)[C@H]1C=O (stereo partly drawn) [Frequentin]
- Pf_72h_%Growth_Rep1 [1, 4]: 84.65%
- Pf_72h_%Growth_Rep2 [1, 5]: 84.20%
- Pf_120h_%Growth_Rep1 [2, 6]: 99.31%
- Pf_120h_%Growth_Rep2 [2, 7]: 94.53%
- Tg_72h_%Growth_Rep1 [3, 8]: 198.87%
- Tg_72h_%Growth_Rep2 [3, 9]: 96.89%

Compound: CC1(O)Cc2oc3cc(O)c(O)c(C(=O)O)c3c(=O)c2CO1 (stereo not drawn) [Fulvic acid]
- Pf_72h_%Growth_Rep1 [1, 4]: 84.86%
- Pf_72h_%Growth_Rep2 [1, 5]: 84.76%
- Pf_120h_%Growth_Rep1 [2, 6]: 105.15%
- Pf_120h_%Growth_Rep2 [2, 7]: 98.61%
- Tg_72h_%Growth_Rep1 [3, 8]: 149.83%
- Tg_72h_%Growth_Rep2 [3, 9]: 113.67%

Compound: Cc1cc(O)cc(=O)o1 [BIA-H1736]
- Pf_72h_%Growth_Rep1 ([1]; P. falciparum 3D7, 72 h, library screen at 2 μg/mL, replicate 1): 86.06%
- Pf_72h_%Growth_Rep2 ([1]; P. falciparum 3D7, 72 h, library screen at 2 μg/mL, replicate 2): 85.31%
- Pf_120h_%Growth_Rep1 ([2]; P. falciparum 3D7, 120 h, library screen at 2 μg/mL, replicate 1): 102.52%
- Pf_120h_%Growth_Rep2 ([2]; P. falciparum 3D7, 120 h, library screen at 2 μg/mL, replicate 2): 94.50%
- Tg_72h_%Growth_Rep1 ([3]; T. gondii RH, library screen at 2 μg/mL, replicate 1): 113.92%
- Tg_72h_%Growth_Rep2 ([3]; T. gondii RH, library screen at 2 μg/mL, replicate 2): 93.67%

Compound: Cc1cccc(O)c1C(=O)O [BIA-M1655]
- Pf_72h_%Growth_Rep1 [1, 10]: 90.28%
- Pf_72h_%Growth_Rep2 [1, 11]: 64.98%
- Pf_120h_%Growth_Rep1 [2, 12]: 96.92%
- Pf_120h_%Growth_Rep2 [2, 13]: 97.37%
- Tg_72h_%Growth_Rep1 [3, 14]: 91.77%
- Tg_72h_%Growth_Rep2 [3, 15]: 83.98%

Compound: COC(=O)[C@H]1NC(=O)[C@H]2NC(=O)[C@H](NC(=O)[C@@H]3NC(=O)[C@H]4NC(=O)[C@H](NC(=O)[C@H](N)c5ccc(O)c(c5)Oc5cc4cc(O)c5C)[C@H](O)c4ccc(cc4)Oc4cc3cc(c4O[C@@H]3O[C@H](COC4O[C@@H](C)[C@H](O)[C@@H](O)[C@H]4O)[C@@H](O)[C@H](O)[C@H]3O[C@@H]3O[C@@H](CO)[C@H](O)[C@@H](O)[C@H]3O[C@@H]3OC[C@@H](O)[C@@H](O)[C@@H]3O)Oc3ccc(cc3)[C@H]2O[C@@H]2C[C@@H](N)[C@@H](O)[C@H](C)O2)c2ccc(O)c(c2)-c2c(O[C@@H]3O[C@H](CO)[C@@H](O)[C@H](O)[C@@H]3O)cc(O)cc21 (stereo partly drawn) [Ristocetin A sulfate]
- Pf_72h_%Growth_Rep1 ([1]; P. falciparum, 72 h, parasite screen 2 μg/mL, replicate 1): 85.98%
- Pf_72h_%Growth_Rep2 ([1]; P. falciparum, 72 h, parasite screen 2 μg/mL, replicate 2): 111.61%
- Pf_120h_%Growth_Rep1 ([2]; P. falciparum, 120 h, parasite screen 2 μg/mL, replicate 1): 82.07%
- Pf_120h_%Growth_Rep2 ([2]; P. falciparum, 120 h, parasite screen 2 μg/mL, replicate 2): 109.30%
- Tg_72h_%Growth_Rep1 ([3]; T. gondii, parasite screen 2 μg/mL, replicate 1): 119.41%
- Tg_72h_%Growth_Rep2 ([3]; T. gondii, parasite screen 2 μg/mL, replicate 2): 85.51%

Compound: COc1cc2nccc3c4ccccc4n(c1=O)c23 [BIA-M1940]
- Pf_72h_%Growth_Rep1 [1, 10]: 95.54%
- Pf_72h_%Growth_Rep2 [1, 11]: 122.74%
- Pf_120h_%Growth_Rep1 [2, 12]: 112.19%
- Pf_120h_%Growth_Rep2 [2, 13]: 105.38%
- Tg_72h_%Growth_Rep1 [3, 14]: 156.47%
- Tg_72h_%Growth_Rep2 [3, 15]: 73.09%

Compound: CO[C@@H]1[C@H](OC(=O)/C=C/C=C/C=C/C=C/C(=O)O)CC[C@]2(CO2)[C@H]1[C@@]1(C)O[C@@H]1CC=C(C)C [Fumagillin]
- activity at 2 µg/mL ([1]; 3D7, 72 h, library screen at 2 μg/mL, 72 h, replicate 1, read-out: Pf_72h_%Growth_Rep1): 10.6%
- activity at 2 µg/mL ([1]; 3D7, 72 h, library screen at 2 μg/mL, 72 h, replicate 2, read-out: Pf_72h_%Growth_Rep2): 6.01%
- activity at 2 µg/mL ([2]; 3D7, 120 h, library screen at 2 μg/mL, 120 h, replicate 1, read-out: Pf_120h_%Growth_Rep1): 7.49%
- activity at 2 µg/mL ([2]; 3D7, 120 h, library screen at 2 μg/mL, 120 h, replicate 2, read-out: Pf_120h_%Growth_Rep2): 7.63%
- percent parasite growth at 2 µg/mL [3, 16]: 31%
- percent parasite growth at 2 µg/mL [3, 17]: 30.7%

Compound: COC(=O)c1cc(O)cc(OC)c1Oc1cc(C)cc(O)c1C(=O)O [Asterric Acid]
- activity at 2 µg/mL ([1]; 3D7, library screen at 2 μg/mL, 72 h, replicate 1, read-out: Pf_72h_%Growth_Rep1): 98.8%
- activity at 2 µg/mL ([1]; 3D7, library screen at 2 μg/mL, 72 h, replicate 2, read-out: Pf_72h_%Growth_Rep2): 86.1%
- activity at 2 µg/mL ([2]; 3D7, library screen at 2 μg/mL, 120 h, replicate 1, read-out: Pf_120h_%Growth_Rep1): 145%
- activity at 2 µg/mL ([2]; 3D7, library screen at 2 μg/mL, 120 h, replicate 2, read-out: Pf_120h_%Growth_Rep2): 103%
- percent parasite growth at 2 µg/mL [3, 16]: 79.1%
- percent parasite growth at 2 µg/mL [3, 17]: 94.1%

Source: publication PMC12396409, “Screening and hit evaluation of a microbial metabolite library against the pathogenic Plasmodium falciparum and Toxoplasma gondii parasites” (International Journal for Parasitology: Drugs and Drug …, 2025)
